Activity, Ratio and Cytotoxicity data for 3 compounds are collected here from ChEMBL document CHEMBL1155913, “Novel anticancer agents, kayeassamins A and B from the flower of Kayea assamica of Myanmar” (2008).

The test system of assay [1] is PANC-1. The experiment in a line: Inhibition of human PANC1 cells migration to pipette tip-induced wounds under nutrient-rich medium at 1 uM after 72 hrs by phase-contrast microscopy. Format: functional, cell-based.
In assay [2] the test system is PANC-1. The experiment in a line: Induction of apoptosis in human PANC1 cells under nutrient-deprived medium assessed as morphological changes at 1 uM after 24 hrs by phase-contrast microscopy. It is filed as functional, cell-based.
For assay [3], the system named is PANC-1. The experiment in a line: Selectivity index, ratio of PC100 for human PANC1 cells under nutrient-rich to nutrient-deprived medium. Format: functional.
Assay [4] concerns PANC-1. Briefly: Cytotoxicity against human PANC1 cells under nutrient-deprived medium after 24 hrs by serial dilution method. Format: functional.

Activity calls are given as the source filed them. The calls are words filed in the database; no cut-off is given here.

Take `CCCC(=O)c1c(O)c(C/C=C(\C)CCC=C(C)C)c2oc(=O)cc([C@@H](O)CC)c2c1O` [KAYEASSAMIN B]: in assay [1], the result was inactive. In assay [2], the outcome was Active. Further, the Ratio in assay [3] stood at 256. The Cytotoxicity in assay [4] came out at 1 µM.
As for `CCCC(=O)c1c(O)c(C/C=C(\C)CCC=C(C)C)c(O)c2c([C@@H](O)CC)cc(=O)oc12` [KAYEASSAMIN A], the outcome in assay [1] was inactive. For the same compound, the outcome in assay [2] was Active. The Ratio in assay [3] came out at 256. Moreover, the Cytotoxicity in assay [4] is 1 µM.
Compound `COc1cc(C[C@H]2C(=O)OC[C@@H]2Cc2ccc(OC)c(OC)c2)ccc1O` [ARCTIGENIN] returned a Cytotoxicity in assay [4] of 1 µM.
